Experimental data reported in ChEMBL document CHEMBL1138980, “Triazolo[1,5-a]pyrimidines as novel CDK2 inhibitors: protein structure-guided design and SAR” (Bioorg Med Chem Lett, 2006).

Key:
[1] = biological target: T1, Serine/threonine-protein kinase Chk1 (Homo sapiens, UniProt O14757); assay: Inhibition of Chk1
T1 sequence (O14757 whole entry): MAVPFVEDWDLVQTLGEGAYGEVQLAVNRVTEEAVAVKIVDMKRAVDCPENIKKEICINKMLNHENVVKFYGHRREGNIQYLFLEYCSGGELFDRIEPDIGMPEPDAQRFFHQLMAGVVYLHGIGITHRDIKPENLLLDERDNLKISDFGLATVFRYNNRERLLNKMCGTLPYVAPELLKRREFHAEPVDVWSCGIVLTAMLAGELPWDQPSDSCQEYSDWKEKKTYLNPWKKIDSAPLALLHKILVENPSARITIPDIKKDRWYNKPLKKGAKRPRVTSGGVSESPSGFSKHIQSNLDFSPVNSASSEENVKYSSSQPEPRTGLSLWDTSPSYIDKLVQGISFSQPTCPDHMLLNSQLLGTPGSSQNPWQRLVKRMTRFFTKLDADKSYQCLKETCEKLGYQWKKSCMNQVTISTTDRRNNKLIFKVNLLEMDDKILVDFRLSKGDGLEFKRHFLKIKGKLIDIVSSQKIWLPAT

[2] = Inhibition of PDK1; design: species or system Homo sapiens
HCT-116 = assay: Antiproliferative activity against HCT116 colon cancer cell line; format: functional; conditions: Homo sapiens
[3] = biological target: Cyclin-dependent kinase 2 (Homo sapiens, UniProt P24941); assay: Inhibition of CDK2 using 100 uM ATP
[4] = biological target: Glycogen synthase kinase-3 beta (Homo sapiens, UniProt P49841); assay: Inhibition of GSK3-beta using 10 uM ATP
Sequence of Glycogen synthase kinase-3 beta (P49841 whole entry): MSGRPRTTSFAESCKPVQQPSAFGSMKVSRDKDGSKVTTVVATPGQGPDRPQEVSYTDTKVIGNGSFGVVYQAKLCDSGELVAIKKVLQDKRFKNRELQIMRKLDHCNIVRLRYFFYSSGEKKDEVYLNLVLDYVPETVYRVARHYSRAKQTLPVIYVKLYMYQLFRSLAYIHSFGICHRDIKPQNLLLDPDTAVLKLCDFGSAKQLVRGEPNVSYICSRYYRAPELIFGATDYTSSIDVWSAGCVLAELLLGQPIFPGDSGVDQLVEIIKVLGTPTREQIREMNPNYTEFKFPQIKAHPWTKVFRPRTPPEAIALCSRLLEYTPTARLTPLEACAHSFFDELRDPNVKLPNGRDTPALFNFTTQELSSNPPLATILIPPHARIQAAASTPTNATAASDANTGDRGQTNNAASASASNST

[5] = biological target: Cyclin-dependent kinase 1 (Homo sapiens, UniProt P06493); assay: Inhibition of CDK1 using 100 uM ATP
Sequence of Cyclin-dependent kinase 1 (P06493 whole entry): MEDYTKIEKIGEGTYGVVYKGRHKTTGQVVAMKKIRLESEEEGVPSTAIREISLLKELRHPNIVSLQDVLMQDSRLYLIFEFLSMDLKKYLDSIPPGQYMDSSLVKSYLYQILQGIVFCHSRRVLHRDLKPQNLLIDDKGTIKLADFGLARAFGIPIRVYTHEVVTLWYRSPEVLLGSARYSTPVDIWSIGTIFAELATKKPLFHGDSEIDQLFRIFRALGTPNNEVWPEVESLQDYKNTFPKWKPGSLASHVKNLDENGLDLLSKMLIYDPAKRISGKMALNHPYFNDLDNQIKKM

IC50 [2] | GI50 (HCT-116) | IC50 [3] | IC50 [4] | IC50 [5] | SMILES | IC50 [1]
> 200 µM | > 80 µM | 0.12 µM | 20 µM | 5.6 µM | CN(C)S(=O)(=O)c1ccc(Nc2cc(N[C@H]3CC[C@H](N)CC3)nc3ncnn23)cc1 | 21 µM
– | 25 µM | – | 0.19 µM | 0.14 µM | NS(=O)(=O)c1ccc(Nc2cc(OC3CCCCC3)nc3ncnn23)cc1 | –
– | 31 µM | – | 0.97 µM | – | NS(=O)(=O)c1ccc(Nc2cc(NC3CCCCC3)nc3ncnn23)cc1 | –
– | 23 µM | 0.4 µM | 11 µM | 3.4 µM | CCN(CC)c1cc(Nc2ccc(S(N)(=O)=O)cc2)n2ncnc2n1 | –
– | 39 µM | – | – | – | NS(=O)(=O)c1ccc(Nc2cc(N[C@H]3CC[C@H](O)CC3)nc3ncnn23)cc1 | –
– | 8 µM | – | – | – | Brc1cccc(-c2cc(NCc3ccncc3)n3nccc3n2)c1 | –
– | – | – | 29 µM | – | NS(=O)(=O)c1ccc(Nc2cc(OCC3CCCCC3)nc3ncnn23)cc1 | –
– | > 80 µM | – | 43 µM | 16 µM | CS(=O)(=O)c1ccc(Nc2cc(N[C@H]3CC[C@H](N)CC3)nc3ncnn23)cc1 | –
43 µM | > 80 µM | – | 0.78 µM | – | NS(=O)(=O)c1ccc(Nc2cc(N[C@H]3CC[C@H](N)CC3)nc3ncnn23)cc1 | –
– | > 80 µM | – | 50 µM | 4.3 µM | N[C@H]1CC[C@H](Nc2cc(Nc3ccc(S(=O)(=O)c4ccccc4)cc3)n3ncnc3n2)CC1 | –

SMILES | IC50 [2] | GI50 (HCT-116) | IC50 [3] | IC50 [4] | IC50 [5] | IC50 [1]
NS(=O)(=O)c1ccc(Nc2nc(OCC3CCCCC3)c3nc[nH]c3n2)cc1 | < 0.5 µM | – | – | 0.04 µM | – | < 0.5 µM
